Experimental data: the supplement of paper PMC10307832

How the values were obtained:
Assay in all cases: relative viability (nuclei count vs DMSO), 5 days (fraction); higher = more cells survive
[1] = test system: NCI-H2405
Summary of the method: (§1)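 Each reported value is a median over duplicate plates. It expresses relative viability: treated-well nuclei count divided by vehicle-well nuclei count. Lung cancer cell lines in 1536-well plates were dosed by pin tool a day after seeding, alone with one drug or with a fixed anchor-drug dose plus five library-drug doses (not always all listed) in √10 steps, and nuclei were counted after 5 days.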

[2] = test system: HCC-44
Summary of the method: as §1

[3] = test system: NCI-H1944
Summary of the method: as §1

[4] = test system: NCI-H650
Summary of the method: as §1

[5] = test system: NCI-H2085
Summary of the method: as §1

[6] = test system: SK-MES-1
Summary of the method: as §1

[7] = test system: NCI-H1793
Summary of the method: as §1

[8] = test system: NCI-H1395
Summary of the method: as §1

[9] = test system: NCI-H520
Summary of the method: as §1

[10] = test system: NCI-H2087
Summary of the method: as §1

[11] = test system: LCLC-103H
Summary of the method: as §1

[12] = test system: NCI-H2023
Summary of the method: as §1

[13] = test system: COR-L23
Summary of the method: as §1

[14] = test system: LU99A
Summary of the method: as §1

[15] = test system: ChaGo-K-1
Summary of the method: as §1

[16] = test system: EMC-BAC-2
Summary of the method: as §1

[17] = test system: H3255
Summary of the method: as §1

[18] = test system: HCC-827
Summary of the method: as §1

[19] = test system: NCI-H838
Summary of the method: as §1

[20] = test system: NCI-H1651
Summary of the method: as §1

[21] = test system: EPLC-272H
Summary of the method: as §1

For `Nc1ccn([C@@H]2O[C@H](CO)[C@@H](O)[C@@H]2O)c(=O)n1` [Cytarabine] + CC(=O)c1c(C)c2cnc(Nc3ccc(N4CCNCC4)cn3)nc2n(C2CCCC2)c1=O [Palbociclib] (partner 0.5 µM), the relative viability ([1]; first compound 0.005 µM) was 0.518, the relative viability ([1]; first compound 0.01581 µM) was 0.449 and the relative viability ([1]; first compound 0.05 µM) was 0.367. It also gave a relative viability ([1]; first compound 0.1581 µM) of 0.275, a relative viability ([1]; first compound 0.5 µM) of 0.234 and a relative viability ([2]; first compound 0.005 µM) of 0.997. For the same compound, the relative viability ([2]; first compound 0.01581 µM) was 0.942, the relative viability ([2]; first compound 0.05 µM) was 0.911 and the relative viability ([2]; first compound 0.1581 µM) was 0.806. The relative viability ([2]; first compound 0.5 µM) was 0.812, the relative viability ([3]; first compound 0.005 µM) was 0.283 and the relative viability ([3]; first compound 0.01581 µM) was 0.248. For the same compound, the relative viability ([3]; first compound 0.05 µM) was 0.207, the relative viability ([3]; first compound 0.1581 µM) was 0.205 and the relative viability ([3]; first compound 0.5 µM) was 0.16. The relative viability ([4]; first compound 0.005 µM) was 0.238, the relative viability ([4]; first compound 0.01581 µM) was 0.227 and the relative viability ([4]; first compound 0.05 µM) was 0.159. For the same compound, the relative viability ([4]; first compound 0.1581 µM) was 0.157, the relative viability ([4]; first compound 0.5 µM) was 0.175 and the relative viability ([5]; first compound 0.005 µM) was 0.445. It also gave a relative viability ([5]; first compound 0.01581 µM) of 0.425, a relative viability ([5]; first compound 0.05 µM) of 0.393 and a relative viability ([5]; first compound 0.1581 µM) of 0.294. The relative viability ([5]; first compound 0.5 µM) was 0.266, the relative viability ([6]; first compound 0.005 µM) was 0.297 and the relative viability ([6]; first compound 0.01581 µM) was 0.265. For the same compound, the relative viability ([6]; first compound 0.05 µM) was 0.253, the relative viability ([6]; first compound 0.1581 µM) was 0.246 and the relative viability ([6]; first compound 0.5 µM) was 0.223. It also gave a relative viability ([7]; first compound 0.005 µM) of 0.341, a relative viability ([7]; first compound 0.01581 µM) of 0.267 and a relative viability ([7]; first compound 0.05 µM) of 0.268. It also gave a relative viability ([7]; first compound 0.1581 µM) of 0.228, a relative viability ([7]; first compound 0.5 µM) of 0.262 and a relative viability ([8]; first compound 0.005 µM) of 0.599. The relative viability ([8]; first compound 0.01581 µM) was 0.594, the relative viability ([8]; first compound 0.05 µM) was 0.492 and the relative viability ([8]; first compound 0.1581 µM) was 0.406. For the same compound, the relative viability ([8]; first compound 0.5 µM) was 0.345, the relative viability ([9]; first compound 0.005 µM) was 0.234 and the relative viability ([9]; first compound 0.01581 µM) was 0.223. For the same compound, the relative viability ([9]; first compound 0.05 µM) was 0.199, the relative viability ([9]; first compound 0.1581 µM) was 0.177 and the relative viability ([9]; first compound 0.5 µM) was 0.201. For the same compound, the relative viability ([10]; first compound 0.005 µM) was 0.23, the relative viability ([10]; first compound 0.01581 µM) was 0.215 and the relative viability ([10]; first compound 0.05 µM) was 0.231. For the same compound, the relative viability ([10]; first compound 0.1581 µM) was 0.167, the relative viability ([10]; first compound 0.5 µM) was 0.205 and the relative viability ([11]; first compound 0.005 µM) was 0.488. For the same compound, the relative viability ([11]; first compound 0.01581 µM) was 0.429, the relative viability ([11]; first compound 0.05 µM) was 0.498 and the relative viability ([11]; first compound 0.1581 µM) was 0.439. For the same compound, the relative viability ([11]; first compound 0.5 µM) was 0.492, the relative viability ([12]; first compound 0.005 µM) was 0.378 and the relative viability ([12]; first compound 0.01581 µM) was 0.221. It also gave a relative viability ([12]; first compound 0.05 µM) of 0.129, a relative viability ([12]; first compound 0.1581 µM) of 0.0971 and a relative viability ([12]; first compound 0.5 µM) of 0.088. For the same compound, the relative viability ([13]; first compound 0.005 µM) was 0.203, the relative viability ([13]; first compound 0.01581 µM) was 0.228 and the relative viability ([13]; first compound 0.05 µM) was 0.176. For the same compound, the relative viability ([13]; first compound 0.1581 µM) was 0.115, the relative viability ([13]; first compound 0.5 µM) was 0.122 and the relative viability ([14]; first compound 0.005 µM) was 0.409. The relative viability ([14]; first compound 0.01581 µM) was 0.399, the relative viability ([14]; first compound 0.05 µM) was 0.391 and the relative viability ([14]; first compound 0.1581 µM) was 0.388. The relative viability ([14]; first compound 0.5 µM) was 0.288, the relative viability ([15]; first compound 0.005 µM) was 0.71 and the relative viability ([15]; first compound 0.01581 µM) was 0.598. The relative viability ([15]; first compound 0.05 µM) was 0.461, the relative viability ([15]; first compound 0.1581 µM) was 0.276 and the relative viability ([15]; first compound 0.5 µM) was 0.229. It also gave a relative viability ([16]; first compound 0.005 µM) of 0.51, a relative viability ([16]; first compound 0.01581 µM) of 0.501 and a relative viability ([16]; first compound 0.05 µM) of 0.463. For the same compound, the relative viability ([16]; first compound 0.1581 µM) was 0.353, the relative viability ([16]; first compound 0.5 µM) was 0.303 and the relative viability ([17]; first compound 0.005 µM) was 0.33. It also gave a relative viability ([17]; first compound 0.01581 µM) of 0.32, a relative viability ([17]; first compound 0.05 µM) of 0.281 and a relative viability ([17]; first compound 0.1581 µM) of 0.265. For the same compound, the relative viability ([17]; first compound 0.5 µM) was 0.261, the relative viability ([18]; first compound 0.005 µM) was 0.347 and the relative viability ([18]; first compound 0.01581 µM) was 0.317. It also gave a relative viability ([18]; first compound 0.05 µM) of 0.19, a relative viability ([18]; first compound 0.1581 µM) of 0.173 and a relative viability ([18]; first compound 0.5 µM) of 0.14. The relative viability ([19]; first compound 0.005 µM) was 0.228, the relative viability ([19]; first compound 0.01581 µM) was 0.244 and the relative viability ([19]; first compound 0.05 µM) was 0.209. It also gave a relative viability ([19]; first compound 0.1581 µM) of 0.2, a relative viability ([19]; first compound 0.5 µM) of 0.149 and a relative viability ([20]; first compound 0.005 µM) of 0.508. For the same compound, the relative viability ([20]; first compound 0.01581 µM) was 0.514, the relative viability ([20]; first compound 0.05 µM) was 0.551 and the relative viability ([20]; first compound 0.1581 µM) was 0.374. It also gave a relative viability ([20]; first compound 0.5 µM) of 0.277, a relative viability ([21]; first compound 0.005 µM) of 0.319 and a relative viability ([21]; first compound 0.01581 µM) of 0.29. It also gave a relative viability ([21]; first compound 0.05 µM) of 0.281, a relative viability ([21]; first compound 0.1581 µM) of 0.249 and a relative viability ([21]; first compound 0.5 µM) of 0.219.
